In patent US20250161476A1 (REGENERON PHARMACEUTICALS, INC., priority 2020, published 2025):
Where a SMILES comes first, the peptide text is derived from it. [ ]: non-standard residue; d: D form. The star is where a group is joined. Bip(2'-Et,4'-O(CH2)4NH2) = CCc1cc(OCCCCN)ccc1-c1ccc(C[C@H](N)C(=O)O)cc1; Malonyl(2,2-Me2,histaminyl) = CC(C)(C(=O)NCCc1cnc[nH]1)C(=O)*; Nva(5-(3,5-Me2Ph)) = Cc1cc(C)cc(CCC[C@H](N)C(=O)O)c1; Ala(1H-tetrazol-5-yl) = N[C@@H](Cc1nnn[nH]1)C(=O)O; X5 = C[C@]1(C(=O)*)CCN(CCc2cnc[nH]2)C1=O; αMePhe(2-F) = C[C@](N)(Cc1ccccc1F)C(=O)O; Desaminohistidyl = O=C(CCc1c[nH]cn1)*; X3 = CC(C)(C(=O)*)c1ccn[nH]1; X1 = O=C(CCCCCc1cnc[nH]1)*; X2 = CC(C)(C(N)=O)C(=O)*; X4 = CC(C)(C(=O)O)C(=O)*

How the values were obtained:
[1] = Plasma stability of payloads and linker-payloads, human plasma; type: in vitro ADME; details: for half-life at 2 µM: human, pooled plasma, pH 7.4, payload properties table, species not given, read-out: Plasma stability t½ (converted)
Procedure: The plasma stability of payloads and linker payloads of the disclosure were measured. For the assay, pooled frozen plasma (human, mouse or monkey) was thawed in cold water or a 37° C. water bath prior to experiment. Plasma was centrifuged at 4000 rpm for 5 min if any clots were observed, they were subsequently removed. If required, the pH was adjusted to 7.4±0.1. For the preparation of compounds and positive controls, a 1 mM intermediate solution was prepared by diluting 10 μL of their stock solution with 90 μL DMSO; a 1 mM intermediate solution of the positive control (Propantheline) was prepared by diluting 10 μL of its stock solution with 90 μL ultrapure water. […] 98 μL of plasma was spiked with 2 μL of dosing solution (100 μM) to achieve the final concentration of 2 μM in duplicate. Samples were then incubated at 37° C. in a water bath. […] At each time point, 400 μL of stop solution (200 ng/mL tolbutamide plus 200 ng/mL labetalol in 50% ACN/MeOH) was added to precipitate protein and mixed thoroughly. Sample plates were then centrifuged at 4,000 rpm for 10 min. An aliquot of supernatant (50 μL) was transferred from each well and mixed with 100 μL ultra-pure water. The samples were then shaken at 800 rpm for approximately 10 min before submitting for LC-MS/MS analysis.

human GLP1R = human GLP1R (Homo sapiens (Human), UniProt P43220); experiment: cAMP responsive luciferase reporter assay, HEK293/CRE-Luc/hGLP1R cells; type: cell-based; details: for HEK293/CRE-LUC/hGLP1R S/N: highest RLU / RLU of untreated wells; for HEK293/CRE-LUC/hGLP1R Relative Potency (% P8 EC50) / HEK293/CRE-LUC/hGLP1R Relative Signal:Noise (% P8): relative to P8 of the same experiment
Text: (§1) To test the activity of GLP1R agonist payloads, GLP1R agonist linker-payloads (LPs), and anti-GLP1R antibody tethered drug conjugates (ATDCs) of the disclosure, a cell-based cAMP responsive luciferase reporter assay was developed. To generate the assay cell line, the firefly luciferase gene was placed under the control of a cAMP response element (CRE) located upstream of a minimal promoter and transfected into HEK293 cells and referred to herein as HEK293/CRE-Luc cells.
(§2) Three-fold serial dilutions of free payloads or LPs were prepared in 100% DMSO, transferred to fresh assay media, and added to the cells at a final constant DMSO concentration of 0.2%. The last well in the plate served as a blank control containing only the assay media and 0.2% DMSO (untreated well) and was plotted as a continuation of the 3-fold serial dilution. Four to six hours later, luciferase activity was determined after the addition of One-Glo™ reagent (Promega, Cat #E6130) to each well. Relative light units (RLUs) were measured on an Envision luminometer (PerkinElmer) and EC50 values were determined using a four-parameter logistic equation over a 12-point dose response curve (GraphPad Prism). The signal to noise (S/N) was determined by taking the ratio of the highest RLU on the dose response curve to the RLU in the untreated wells.
GLP1R agonist linker payloads were conjugated to anti-hGLP1R antibodies via N-terminal heavy or light chain Q tags. Several resulting anti-GLP1R antibody tethered drug conjugates (ATDCs) were tested for activity in the HEK293/CRE-Luc/hGLP1R reporter assay as described above for the free GLP1R payload and linker-payload agonists.

HEK293/CRE-Luc cells = experiment: cAMP responsive luciferase reporter assay, HEK293/CRE-Luc cells (no hGLP1R expression); type: cell-based, human
Text: as §1, §2

Sequence of human GLP1R (P43220 24-463): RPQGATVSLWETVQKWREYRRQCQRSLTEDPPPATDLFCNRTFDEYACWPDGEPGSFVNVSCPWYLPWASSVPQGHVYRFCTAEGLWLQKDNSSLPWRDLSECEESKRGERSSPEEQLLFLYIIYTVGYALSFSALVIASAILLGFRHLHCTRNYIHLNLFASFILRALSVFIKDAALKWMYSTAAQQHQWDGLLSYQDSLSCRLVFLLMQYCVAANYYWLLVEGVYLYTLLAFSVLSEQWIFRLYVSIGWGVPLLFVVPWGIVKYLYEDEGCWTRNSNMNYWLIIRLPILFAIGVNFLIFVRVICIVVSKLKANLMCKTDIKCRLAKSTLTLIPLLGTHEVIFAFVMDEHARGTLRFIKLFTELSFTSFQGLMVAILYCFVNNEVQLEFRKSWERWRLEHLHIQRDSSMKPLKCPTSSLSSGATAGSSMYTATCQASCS

Row | Compound | Human plasma stability assay T½ ([1]; tested for 1 day (A)) | half-life at 2 µM [1] | HEK293/CRE-LUC/hGLP1R S/N (human GLP1R) | HEK293/CRE-LUC/hGLP1R Relative Potency (% P8 EC50) (human GLP1R) | HEK293/CRE-LUC/hGLP1R Relative Signal:Noise (% P8) (human GLP1R) | EC50 (HEK293/CRE-Luc cells) | HEK293/CRE-LUC S/N (HEK293/CRE-Luc cells) | Human plasma stability assay T½ ([1]; tested for 2 hrs (B))
1 | CCc1cc(OCCCCN)ccc1-c1ccc(C[C@H](NC(=O)[C@H](CC(=O)O)NC(=O)[C@H](CO)NC(=O)[C@@H](NC(=O)[C@](C)(Cc2ccccc2F)NC(=O)[C@@H](NC(=O)CNC(=O)[C@H](Cc2nn[nH]n2)NC(=O)C(C)(C)C(=O)O)[C@@H](C)O)[C@@H](C)O)C(=O)N[C@@H](CCCc2cc(C)cc(C)c2)C(N)=O)cc1 [P3] (X4-[Ala(1H-tetrazol-5-yl)]GT[αMePhe(2-F)]TSD[Bip(2'-Et,4'-O(CH2)4NH2)][Nva(5-(3,5-Me2Ph))]-NH2) | >57.81 h | > 57.8 h | 46.3 | 0.3% | 70.3% | > 200 nM | 1.2 | –
2 | CCc1cc(OCCCCN)ccc1-c1ccc(C[C@H](NC(=O)[C@H](CC(=O)O)NC(=O)[C@H](CO)NC(=O)[C@@H](NC(=O)[C@](C)(Cc2ccccc2F)NC(=O)[C@@H](NC(=O)CNC(=O)[C@H](Cc2nn[nH]n2)NC(=O)C(C)(C)C(N)=O)[C@@H](C)O)[C@@H](C)O)C(=O)N[C@@H](CCCc2cc(C)cc(C)c2)C(N)=O)cc1 [P4] (X2-[Ala(1H-tetrazol-5-yl)]GT[αMePhe(2-F)]TSD[Bip(2'-Et,4'-O(CH2)4NH2)][Nva(5-(3,5-Me2Ph))]-NH2) | >57.81 h | > 57.8 h | 66.9 | 6.3% | 101.8% | > 200 nM | 1.6 | –
3 | CCc1cc(OCCCCN)ccc1-c1ccc(C[C@H](NC(=O)[C@H](CC(=O)O)NC(=O)[C@H](CO)NC(=O)[C@@H](NC(=O)[C@](C)(Cc2ccccc2F)NC(=O)[C@@H](NC(=O)CNC(=O)[C@H](Cc2nn[nH]n2)NC(=O)C(C)(C)c2ccn[nH]2)[C@@H](C)O)[C@@H](C)O)C(=O)N[C@@H](CCCc2cc(C)cc(C)c2)C(N)=O)cc1 [P6] (X3-[Ala(1H-tetrazol-5-yl)]GT[αMePhe(2-F)]TSD[Bip(2'-Et,4'-O(CH2)4NH2)][Nva(5-(3,5-Me2Ph))]-NH2) | >57.81 h | > 57.8 h | 60.7 | 0.9% | 92.3% | > 200 nM | 1.0 | –
4 | CCc1cc(OCCCCN)ccc1-c1ccc(C[C@H](NC(=O)[C@H](CC(=O)O)NC(=O)[C@H](CO)NC(=O)[C@@H](NC(=O)[C@](C)(Cc2ccccc2F)NC(=O)[C@@H](NC(=O)CNC(=O)[C@H](Cc2nn[nH]n2)NC(=O)C(C)(C)C(=O)NCCc2cnc[nH]2)[C@@H](C)O)[C@@H](C)O)C(=O)N[C@@H](CCCc2cc(C)cc(C)c2)C(N)=O)cc1 [P9, (8S,14S,17S,20S,23S,26S)-8-((2H-tetrazol-5-yl)methyl)-26-(((S)-1-(((S)-1-amino-5-(3,5-dimethylphenyl)-1-oxopentan-2-yl)amino)-3-(4′-(4-aminobutoxy)-2′-ethyl-[1,1′-biphenyl]-4-yl)-1-oxopropan-2-yl)carbamoyl)-17-(2-fluorobenzyl)-14,20-bis((R)-1-hydroxyethyl)-23-(hydroxymethyl)-1-(1H-imidazol-5-yl)-5,5,17-trimethyl-4,6,9,12,15,18,21,24-octaoxo-3,7,10,13, 16,19,22,25-octaazaoctacosan-28-oic acid] ({Malonyl(2,2-Me2,histaminyl)}-[Ala(1H-tetrazol-5-yl)]GT[αMePhe(2-F)]TSD[Bip(2'-Et,4'-O(CH2)4NH2)][Nva(5-(3,5-Me2Ph))]-NH2) | >57.81 h | > 57.8 h | 75.2 | 133.8% | 114.3% | > 200 nM | 1.3 | –
5 | CCc1cc(OCCCCN)ccc1-c1ccc(C[C@H](NC(=O)[C@H](CC(=O)O)NC(=O)[C@H](CO)NC(=O)[C@@H](NC(=O)[C@](C)(Cc2ccccc2F)NC(=O)[C@@H](NC(=O)CNC(=O)[C@H](Cc2nn[nH]n2)NC(=O)[C@H](C)NC(=O)[C@@H](N)Cc2cnc[nH]2)[C@@H](C)O)[C@@H](C)O)C(=O)N[C@@H](CCCc2cc(C)cc(C)c2)C(N)=O)cc1 [P10] (H-HA[Ala(1H-tetrazol-5-yl)]GT[αMePhe(2-F)]TSD[Bip(2'-Et,4'-O(CH2)4NH2)][Nva(5-(3,5-Me2Ph))]-NH2) | – | 1.8 h | 45.1 | 38.0% | 68.6% | > 200 nM | 1.2 | 1.83 h
6 | CCc1cc(OCCCCN)ccc1-c1ccc(C[C@H](NC(=O)[C@H](CC(=O)O)NC(=O)[C@H](CO)NC(=O)[C@@H](NC(=O)[C@](C)(Cc2ccccc2F)NC(=O)[C@@H](NC(=O)CNC(=O)[C@H](Cc2nn[nH]n2)NC(=O)CCCCCc2cnc[nH]2)[C@@H](C)O)[C@@H](C)O)C(=O)N[C@@H](CCCc2cc(C)cc(C)c2)C(N)=O)cc1 [P11] (X1-[Ala(1H-tetrazol-5-yl)]GT[αMePhe(2-F)]TSD[Bip(2'-Et,4'-O(CH2)4NH2)][Nva(5-(3,5-Me2Ph))]-NH2) | >57.81 h | > 57.8 h | 54.8 | 0.8% | 83.4% | > 200 nM | 1.1 | –
7 | CCc1cc(OCCCCN)ccc1-c1ccc(C[C@H](NC(=O)[C@H](CC(=O)O)NC(=O)[C@H](CO)NC(=O)[C@@H](NC(=O)[C@](C)(Cc2ccccc2F)NC(=O)[C@@H](NC(=O)CNC(=O)[C@H](Cc2nn[nH]n2)NC(=O)CNC(=O)CCc2c[nH]cn2)[C@@H](C)O)[C@@H](C)O)C(=O)N[C@@H](CCCc2cc(C)cc(C)c2)C(N)=O)cc1 [P12] (Desaminohistidyl-G[Ala(1H-tetrazol-5-yl)]GT[αMePhe(2-F)]TSD[Bip(2'-Et,4'-O(CH2)4NH2)][Nva(5-(3,5-Me2Ph))]-NH2) | >57.81 h | > 57.8 h | 76.4 | 46.5% | 116.2% | > 200 nM | 1.2 | –
8 | CCc1cc(OCCCCN)ccc1-c1ccc(C[C@H](NC(=O)[C@H](CC(=O)O)NC(=O)[C@H](CO)NC(=O)[C@@H](NC(=O)[C@](C)(Cc2ccccc2F)NC(=O)[C@@H](NC(=O)CNC(=O)[C@H](Cc2nn[nH]n2)NC(=O)[C@H](C)NC(=O)[C@H](Cc2c[nH]cn2)NC(=O)[C@@H](N)CCC(N)=O)[C@@H](C)O)[C@@H](C)O)C(=O)N[C@@H](CCCc2cc(C)cc(C)c2)C(N)=O)cc1 [P13] (H-QHA[Ala(1H-tetrazol-5-yl)]GT[αMePhe(2-F)]TSD[Bip(2'-Et,4'-O(CH2)4NH2)][Nva(5-(3,5-Me2Ph))]-NH2) | 16.9 h | 16.9 h | 69.5 | 1.5% | 105.6% | > 200 nM | 1.2 | –
9 | CCc1cc(OCCCCN)ccc1-c1ccc(C[C@H](NC(=O)[C@H](CC(=O)O)NC(=O)[C@H](CO)NC(=O)[C@@H](NC(=O)[C@](C)(Cc2ccccc2F)NC(=O)[C@@H](NC(=O)CNC(=O)[C@H](Cc2nn[nH]n2)NC(=O)[C@@]2(C)CCN(CCc3cnc[nH]3)C2=O)[C@@H](C)O)[C@@H](C)O)C(=O)N[C@@H](CCCc2cc(C)cc(C)c2)C(N)=O)cc1 [P15-R] (X5-[Ala(1H-tetrazol-5-yl)]GT[αMePhe(2-F)]TSD[Bip(2'-Et,4'-O(CH2)4NH2)][Nva(5-(3,5-Me2Ph))]-NH2) | – | – | 67.8 | 40.3% | 103.1% | > 200 nM | 1.1 | –
